Results: the NIST ThermoML archive (doi:10.1021/acs.jced.8b00977)
Numbers after ± are expanded uncertainties.

Assays:
[1] = Crystal; DSC
[2] = Molar enthalpy of transition or fusion; settings: Crystal; DSC

For `CC(=O)CC(c1ccccc1)c1c([O-])c2ccccc2oc1=O.[Na+]` (configuration not stated) [warfarin sodium], the Triple point temperature [1] was 468.87 ± 1 K and the “Molar enthalpy of transition or fusion” value [2] was 17 ± 0.884 kcal/mol.
